The test has as its system Lewis lung carcinoma (LLC) cells. The experiment in a line: inhibition of in vivo growth of Lewis lung carcinoma. Further details: species or system BDF1 mice. The following applies: 2000 μg, intraperitoneal, 20 doses; day 21. Here is the method:
The inhibition of cancer cell growth in vivo system was examined in BDF1 mice using Lewis lung carcinoma (LLC) cells. The concentration of LLC cells used was such that each mouse was injected with one million carcinoma cells via subcutaneous injection to induce a cancer. One hundred microliter of TMP liposome (TMP 100 μg) was injected intraperitoneally and intravenously, respectively, 1 day, 3 days, 6 days and 9 days after the injection of the above LLC cells. As a positive control, AG3340 (Agouron Pharmaceuticals Co., Ltd., USA), known as an MMP-2 (matrix metaloproteinasse-2) inhibitor, was suspended in 0.2% tween/0.5% carboxymethyl cellulose and 2 mg of the resulting suspension was intraperitoneally injected daily. […]
TMP.I liposomes (DPPC/Chol/TMP.I=5:5:1 mole ratio) having an anti-metastatic activity, was administered to BDF1 inoculated with Lewis Lung Carcinoma (LLC) cells and their inhibitory effect on the tumor growth was observed. […] The same administration was repeated after 3 days, 6 days and 9 days of the subcutaneous injection of the LLC cancer cells and 21 days after the injection each mouse was killed by dislocation of the cervical vertebra, and the volume of cancer was measured by the following equation and the results are shown in the following table 5. […]

Structures are written as SMILES.

For the compound `CC1(C)SCCN(S(=O)(=O)c2ccc(Oc3ccncc3)cc2)[C@H]1C(=O)NO` [AG3340], the “Volume of Cancer” value stood at 1100 ± 250 mm^3.

The values are drawn from patent publication US6538032B1, “Phytosphingosine derivatives with antitumor activity” (Charmzone Co., Ltd., priority 2001, dated 2003).
